Laboratory results published in PMC7400135, “3-(5-Nitrofuran-2-yl)prop-2-en-1-one Derivatives, with Potent Antituberculosis Activity, Inhibit A Novel Therapeutic Target, Arylamine N-acetyltransferase, in Mycobacteria” (Antibiotics, 2020).
Values after ≈ are worked out from the molar mass of the structure shown. Read-outs that look alike come from different tables or passages of the source. Marks after values point to notes of the source that are not given here.

Tests used:
E. coli (NCTC 10538) = experiment: HT-SPOTi growth inhibition (MIC), E. coli; type: cell-based, Escherichia coli; conditions: 37 °C 16 h; for MIC: Escherichia coli, NCTC10538, LB agar; for MIC Escherichia coli: LB agar
[1] = tested on: M. bovis BCG (ATCC 35734); experiment: microbe, parasite or virus in culture; type: cell-based; conditions: Mycobacterium tuberculosis variant bovis BCG, 336 h, read-out: MIC Mycobacterium bovis BCG
S. aureus (ATCC 25923) = experiment: HT-SPOTi growth inhibition (MIC), S. aureus; type: cell-based, Staphylococcus aureus; conditions: 37 °C 16 h; for MIC: Staphylococcus aureus, ATCC25923, LB agar; for MIC Staphylococcus aureus: LB agar
M. aurum (NCTC 10437) [2] = experiment: HT-SPOTi growth inhibition (MIC), M. aurum; type: cell-based; conditions: Mycolicibacterium aurum, NCTC10437, 120 h; HT-SPOTi agar assay, 35 °C 5 days; read-out: MIC Mycobacterium aurum
[3] = tested on: murine macrophage RAW 264.7 cell line; conditions: resazurin assay, 48 h incubation
[4] = molecular target: recombinant Mycobacterium marinum N-acetyltransferase (MMNAT) (Mycobacterium marinum, UniProt B2HIZ6); experiment: Inhibition of recombinant MMNAT (DTNB assay); type: biochemical
[5] = tested on: M. tuberculosis H37Rv (ATCC 25618); experiment: HT-SPOTi growth inhibition (MIC), M. tuberculosis H37Rv; type: cell-based; conditions: Mycobacterium tuberculosis; HT-SPOTi agar assay; read-out: MIC Mtb H37Rv
[6] = tested on: human monocyte THP-1 cell line; conditions: resazurin assay, 48 h incubation
[7] = tested on: M. bovis BCG (ATCC 35734); conditions: ref Gupta and Bhakta, 2012; cited from earlier work
M. aurum (NCTC 10437) [8] = tested on: M. aurum (NCTC 10437); design: method as in Gupta and Bhakta, 2012; conditions: ref Gupta and Bhakta, 2012; cited from earlier work
[9] = tested on: M. bovis BCG infected in THP-1 macrophages; experiment: microbe, parasite or virus in culture; type: cell-based, Mycobacterium bovis BCG; conditions: for ex vivo MIC as multiple of MIC: M. bovis BCG in THP-1 macrophages; for MIC: Mycobacterium tuberculosis variant bovis BCG, BCG, 48 h, read-out: ex vivo MIC
[10] = hydralazine 450 µM, acetyl CoA 400 µM, extrapolated from linear regression, read-out: IC50 MMNAT
[11] = value in brackets, same IC50 in mg/L, read-out: IC50 MMNAT

Chain of recombinant Mycobacterium marinum N-acetyltransferase (MMNAT) (B2HIZ6 entry or part of it): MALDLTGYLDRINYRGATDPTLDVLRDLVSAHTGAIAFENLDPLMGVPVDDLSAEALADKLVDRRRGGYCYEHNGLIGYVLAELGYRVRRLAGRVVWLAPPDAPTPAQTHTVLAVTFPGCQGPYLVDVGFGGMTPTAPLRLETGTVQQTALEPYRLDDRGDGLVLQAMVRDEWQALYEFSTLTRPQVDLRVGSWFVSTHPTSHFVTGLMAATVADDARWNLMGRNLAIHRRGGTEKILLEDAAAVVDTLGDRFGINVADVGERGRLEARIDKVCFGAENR

| SMILES | MIC (E. coli (NCTC 10538)) [µg/mL] | MIC [1] [µg/mL] | MIC (S. aureus (ATCC 25923)) [µg/mL] | MIC (M. aurum (NCTC 10437) [2]) [µg/mL] | GIC RAW 264.7 Cell Line [3] | IC50 [4, 10] [nM] | IC50 [4, 11] [nM] | MIC Escherichia coli (E. coli (NCTC 10538)) | MIC [5] [µg/mL] | GIC THP-1 Cell Line [6] | MIC Staphylococcus aureus (S. aureus (ATCC 25923)) | IC50 [4] [nM] | MIC Mycobacterium bovis BCG [7] | MIC Mycobacterium aurum (M. aurum (NCTC 10437) [8]) | ex vivo MIC as multiple of MIC [9] [× MIC] | MIC [9] [µg/mL] |
| --- | --- | --- | --- | --- | --- | --- | --- | --- | --- | --- | --- | --- | --- | --- | --- | --- |
| CC1(C)S[C@@H]2[C@H](NC(=O)[C@H](N)c3ccccc3)C(=O)N2[C@H]1C(=O)O [Ampicillin, reference compound] | 2 (≈ 5.72 µM) | > 500 | 0.125 (≈ 0.358 µM) |  |  |  |  |  |  |  |  |  |  |  |  |  |
| O=C(/C=C/c1ccc([N+](=O)[O-])o1)c1ccc(N2CCCCC2)cc1 [Compound 2] | > 500 | 0.0075 (≈ 0.023 µM) | > 500 | > 500 | 125 mg/L | 269 | 270 | inactive | 0.031 (≈ 0.095 µM) | 62.5 mg/L | inactive |  |  |  |  |  |
| O=[N+]([O-])c1cn2c(n1)OC[C@@H](OCc1ccc(OC(F)(F)F)cc1)C2 [Pretomanid] |  |  |  |  |  | > 1000 |  |  | 0.061 (≈ 0.17 µM) |  |  |  |  |  |  |  |
| CCN(CC)c1ccc(C(=O)/C=C/c2ccc([N+](=O)[O-])o2)cc1 [Compound 3] | 250 (≈ 795 µM) | 0.03 (≈ 0.0954 µM) | 62.5 (≈ 199 µM) | > 500 | 31.25 mg/L | 134 | 134 |  | 0.488 (≈ 1.55 µM) | 15.6 mg/L |  |  |  |  |  |  |
| CO[C@H]1/C=C/O[C@@]2(C)Oc3c(C)c(O)c4c(O)c(c(/C=N/N5CCN(C)CC5)c(O)c4c3C2=O)NC(=O)/C(C)=C\C=C\[C@H](C)[C@H](O)[C@@H](C)[C@@H](O)[C@@H](C)[C@H](OC(C)=O)[C@@H]1C [Rifampicin] |  |  |  |  |  |  |  |  | 0.125 (≈ 0.152 µM) |  |  | > 1000 | 0.50 ^# mg/L | 0.40 ^# mg/L |  |  |
| CN(Cc1cnc2nc(N)nc(N)c2n1)c1ccc(C(=O)N[C@@H](CCC(=O)O)C(=O)O)cc1 [Methotrexate, reference compound] |  | 500 (≈ 1100 µM) |  |  | 0.122 mg/L |  |  |  | > 500 | 0.975 mg/L |  |  |  |  |  |  |
| O=C(/C=C/c1ccc([N+](=O)[O-])o1)c1ccc(N2CCOCC2)cc1 [Compound 1] | > 500 | 0.06 (≈ 0.183 µM) | > 500 | > 500 | 125 mg/L | 207 | 207 | inactive | 0.244 (≈ 0.743 µM) | 62.5 mg/L | inactive |  |  |  | 4 | 0.24 (≈ 0.731 µM) |
| CC[C@@H](CO)NCCN[C@@H](CC)CO [Ethambutol] |  |  |  |  |  | > 1000 |  |  | 2 (≈ 9.79 µM) |  |  |  | 2.00 ^# mg/L | 0.10 ^# mg/L |  |  |
| NNC(=O)c1ccncc1 [Isoniazid, reference compound] |  | 0.625 (≈ 4.56 µM) |  | 1.25 (≈ 9.11 µM) | NA^a (not active until 500 mg/L concentration) | > 1000 |  |  | 0.8 (≈ 5.83 µM) | NA^a (not active until 500 mg/L concentration) |  |  |  |  | 2 | 1.25 (≈ 9.11 µM) |
